Here are results for 19 molecules from patent publication US11407736B2 (priority 2019, dated 2022).

One test deals with RIPK1 (Homo sapiens (Human), UniProt Q13546). Put plainly: RIPK1 ADP-Glo biochemical kinase assay. The procedure: The final reaction volume was 5.0ul.
Adding 5 μl of ADP-Glo™ terminated the reaction.
In general terms: In ADP-Glo the light output rises with the ADP produced.

The subject of another test is L929 cells. The test is described as follows: L929 cell necroptosis assay (TNFa + zVAD, CellTiter-Glo). It is filed as cell-based, murine. In outline: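 Necroptosis was read as CellTiter-Glo luminescence 18 hours after TNFa stimulation at 37° C, 5% CO2. Prior to that, L929 cells (10K/well, plated 18 h) received fresh medium with 40 uM zVAD-fmk plus 4-fold serially diluted compound.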
(In general: In ATP-based viability assays light output follows the ATP content of the culture.)

Another test relates to U937 cells. Put plainly: U937 cell necroptosis assay (TNFa + zVAD, CellTiter-Glo). It is filed as cell-based, human. In outline:
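Necroptosis was induced with TNFa at 2 ng/mL final for 18 h at 37 °C, following 1 h compound pre-incubation in the presence of zVAD-fmk (60 uM for U937 plating medium, 40 uM for L929 medium). Luminescent CellTiter-Glo signal gave relative cell survival.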

[1] abbreviates: read-out: RIPK1 ADP-Glo Kinase (IC50).
Setting [2] is: Mus musculus, L929, L929 cells, TNFa + zVAD, read-out: L929-CTG-recovery, L929, TNFa + zVAD (IC50).
The mark [3] stands for this setting: Homo sapiens, U-937, U937 cells, TNFa + zVAD, read-out: U937 Zvad TNF CTG Recovery, U937, TNFa + zVAD (IC50).
The mark [4] stands for this setting: Mus musculus, L929, read-out: L929-CTG-recovery, L929, TNFa + zVAD (IC50), L929 cells, TNFa + zVAD.
[5] abbreviates: Homo sapiens, U-937, read-out: U937 Zvad TNF CTG Recovery, U937, TNFa + zVAD (IC50), U937 cells, TNFa + zVAD.
The mark [6] stands for this setting: L929 cells, TNFa + zVAD, read-out: L929-CTG-recovery, L929, TNFa + zVAD (IC50).
Setting [7] is: U937 cells, TNFa + zVAD, read-out: U937 Zvad TNF CTG Recovery, U937, TNFa + zVAD (IC50).

Where a name gives a salt, the structure may show the parent alone. Read-outs that look alike come from different tables or passages of the source.

RIPK1, sequence (Q13546 whole entry, species assumed): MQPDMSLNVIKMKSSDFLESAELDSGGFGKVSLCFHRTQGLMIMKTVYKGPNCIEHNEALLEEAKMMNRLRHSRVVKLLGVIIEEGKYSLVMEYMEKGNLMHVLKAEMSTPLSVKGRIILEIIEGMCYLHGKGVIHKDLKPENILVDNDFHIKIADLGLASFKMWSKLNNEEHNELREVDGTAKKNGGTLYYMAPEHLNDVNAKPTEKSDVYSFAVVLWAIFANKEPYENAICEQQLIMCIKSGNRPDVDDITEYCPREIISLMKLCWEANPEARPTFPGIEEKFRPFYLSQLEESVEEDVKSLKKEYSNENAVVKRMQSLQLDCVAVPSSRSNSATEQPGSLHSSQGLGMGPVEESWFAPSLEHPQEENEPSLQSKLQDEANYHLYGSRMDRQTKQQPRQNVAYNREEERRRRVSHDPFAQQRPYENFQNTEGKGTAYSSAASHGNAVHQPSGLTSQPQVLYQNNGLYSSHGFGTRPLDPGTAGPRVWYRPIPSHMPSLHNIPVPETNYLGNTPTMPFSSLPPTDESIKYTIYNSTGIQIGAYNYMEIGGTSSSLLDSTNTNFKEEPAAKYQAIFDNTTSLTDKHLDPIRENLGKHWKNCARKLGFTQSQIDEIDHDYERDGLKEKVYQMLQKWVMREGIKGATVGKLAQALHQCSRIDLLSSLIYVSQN

The IC50 is the concentration at which inhibition is half-maximal. Regarding `CN1C(=O)[C@@H](NC(=O)n2cc(Cc3ccc(F)cc3)cn2)COc2ccc(C#CC3(O)CCC3)cc21` [Compound I-221, (S)-4-(4-Fluorobenzyl)-N-(7-((l-hydroxycyclobutyl)ethynyl)-5-methyl-4-oxo-2,3,4,5-tetrahydrobenzo[b][1,4]oxazepin-3-yl)-1H-pyrazole-1-carboxamide], the IC50 at RIPK1 (setting [1]) was 39.7 nM; in the test on L929 cells (setting [2]), 72.2 nM; with U937 cells (setting [3]) it was 2.5 nM.
As for `CN1C(=O)[C@@H](NC(=O)c2cc(Oc3ccccc3)ccn2)COc2cc(C#Cc3ccccn3)ccc21` [II-16, (S)—N-(5-methyl-4-oxo-8-(pyridin-2-ylethynyl)-2,3,4,5-tetrahydrobenzo[b][1,4]oxazepin-3-yl)-4-phenoxypicolinamide], the figures for the IC50 on RIPK1 (setting [1]), in the test on L929 cells (setting [2]) and with U937 cells (setting [3]) were 45.2 nM, 2120 nM and 3.4 nM, respectively.
For the molecule `CN1C(=O)[C@@H](NC(=O)c2cc(Oc3ccccc3)ccn2)COc2ccc(C#CC(C)(C)N)cc21` [Compound I-167, (S)—N-(7-(3-amino-3-methylbut-1-yn-1-yl)-5-methyl-4-oxo-2,3,4,5-tetrahydrobenzo[b][1,4]oxazepin-3-yl)-4-phenoxypicolinamide hydrochloride], the IC50 was found to be 17.5 nM at RIPK1 (hydrochloride, read-out: RIPK1 ADP-Glo Kinase (IC50)); 1210 nM in the test on L929 cells (read-out: L929-CTG-recovery, L929, TNFa + zVAD (IC50), L929 cells, TNFa + zVAD, hydrochloride); 5.3 nM in the test on U937 cells (read-out: U937 Zvad TNF CTG Recovery, U937, TNFa + zVAD (IC50), U937 cells, TNFa + zVAD, hydrochloride).
As to `CN1C(=O)[C@@H](NC(=O)c2cc(Oc3ccc(F)cc3F)ccn2)COc2ccc(C#CC(C)(C)C)cc21` [Compound I-104, (S)-4-(2,4-difluorophenoxy)-N-(7-(3,3-dimethylbut-1-yn-1-yl)-5-methyl-4-oxo-2,3,4,5-tetrahydrobenzo[b][1,4]oxazepin-3-yl)picolinamide], the IC50 on RIPK1 (setting [1]) stood at 581 nM; in the test with L929 cells (setting [2]), 1820 nM; in the test on U937 cells (setting [3]) it was 224 nM.
Consider `CN1C(=O)[C@@H](NC(=O)c2n[nH]c(Cc3ccccc3)n2)COc2ccc(C#CCN3CCCC3)cc21` [Compound I-95, (S)-5-benzyl-N-(5-methyl-4-oxo-7-(3-(pyrrolidin-1-yl)prop-1-yn-1-yl)-2,3,4,5-tetrahydrobenzo[b][1,4]oxazepin-3-yl)-1H-1,2,4-triazole-3-carboxamide], for which the results for the IC50 on RIPK1 (setting [1]), with L929 cells (setting [2]) and in the test with U937 cells (setting [3]) were 27.1 nM, 0.5 nM and 1.4 nM, respectively.
Consider `CN1C(=O)[C@@H](NC(=O)c2n[nH]c(Cc3ccccc3)n2)COc2ccc(CCC(C)(C)O)cc21` [Compound I-28, (S)-5-benzyl-N-(7-(3-hydroxy-3-methylbutyl)-5-methyl-4-oxo-2,3,4,5-tetrahydrobenzo[b][1,4]oxazepin-3-yl)-1H-1,2,4-triazole-3-carboxamide], for which the values for the IC50 at RIPK1 (setting [1]), in the test on L929 cells (setting [2]) and in the test with U937 cells (setting [3]) were 37.5 nM, 674 nM and 5.4 nM, respectively.
Consider `CN1C(=O)[C@@H](NC(=O)c2cc(Oc3ccccc3)ccn2)COc2ccc(C#CC(C)(C)N3CCCC3)cc21` [Compound I-210, (S)—N-(5-Methyl-7-(3-methyl-3-(pyrrolidin-1-yl)but-1-yn-1-yl)-4-oxo-2,3,4,5-tetrahydrobenzo[b][1,4]oxazepin-3-yl)-4-phenoxypicolinamide], for which the results for the IC50 on RIPK1 (setting [1]), in the test on L929 cells (setting [2]) and in the test with U937 cells (setting [3]) were 28.6 nM, 470 nM and 4.2 nM, respectively.
Regarding `COc1ccc(-c2ccnc(C(=O)N[C@H]3COc4ccc(C#CC(C)(C)O)cc4N(C)C3=O)c2)cc1` [II-22, (S)—N-(7-(3-hydroxy-3-methylbut-1-yn-1-yl)-5-methyl-4-oxo-2,3,4,5-tetrahydrobenzo[b][1,4]oxazepin-3-yl)-4-(4-methoxyphenyl)picolinamide], the results for the IC50 on RIPK1 (setting [1]), in the test with L929 cells (setting [4]) and with U937 cells (setting [5]) were 310 nM, 56000 nM and 580 nM, respectively.
With `CN1CCN(C(C)(C)C#Cc2ccc3c(c2)N(C)C(=O)[C@@H](NC(=O)c2cc(Oc4ccccc4)ccn2)CO3)CC1` [Compound I-158, (S)—N-(5-methyl-7-(3-methyl-3-(4-methylpiperazin-1-yl)but-1-yn-1-yl)-4-oxo-2,3,4,5-tetrahydrobenzo[b][1,4]oxazepin-3-yl)-4-phenoxypicolinamide], the IC50 on RIPK1 was 14.7 nM; in the test on L929 cells (setting [2]), 1640 nM; in the test with U937 cells (setting [3]), 9.5 nM.
For the molecule `CN1C(=O)[C@@H](NC(=O)c2cc(Oc3ccccc3F)ccn2)COc2ccc(C#CC(C)(C)O)cc21` [Compound I-103, (S)-4-(2-fluorophenoxy)-N-(7-(3-hydroxy-3-methylbut-1-yn-1-yl)-5-methyl-4-oxo-2,3,4,5-tetrahydrobenzo[b][1,4]oxazepin-3-yl)picolinamide], the IC50 on RIPK1 (setting [1]) was found to be 49 nM; in the test on L929 cells (setting [2]), 67.4 nM; in the test on U937 cells (setting [3]), 1.5 nM.
Turning to `CN1C(=O)[C@@H](NC(=O)c2ccn(Cc3ccccc3)n2)COc2ccc(C#CC(C)(C)O)cc21` [Compound I-77, (S)-1-benzyl-N-(7-(3-hydroxy-3-methylbut-1-yn-1-yl)-5-methyl-4-oxo-2,3,4,5-tetrahydrobenzo[b][1,4]oxazepin-3-yl)-1H-pyrazole-3-carboxamide], the IC50 worked out at 32.7 nM at RIPK1 (setting [1]), 0.3 nM in the test on L929 cells (setting [2]) and 2.8 nM in the test on U937 cells (setting [3]).
As to `CN1C(=O)[C@@H](NC(=O)c2n[nH]c(Cc3ccccc3)n2)COc2ccc(/C=C/C(=O)N3CCCC3)cc21` [Compound I-22, (S,E)-5-benzyl-N-(5-methyl-4-oxo-7-(3-oxo-3-(pyrrolidin-1-yl)prop-1-en-1-yl)-2,3,4,5-tetrahydrobenzo[b][1,4]oxazepin-3-yl)-1H-1,2,4-triazole-3-carboxamide], the values for the IC50 at RIPK1 (setting [1]), in the test on L929 cells (setting [2]) and in the test on U937 cells (setting [3]) were 48 nM, 3380 nM and 4.8 nM, respectively.
Take `CN1C(=O)[C@@H](NC(=O)c2cc(Oc3ccccc3)ccn2)COc2ccc(C#CC3(F)COC3)cc21` [Compound I-129, (S)—N-(7-((3-fluorooxetan-3-yl)ethynyl)-5-methyl-4-oxo-2,3,4,5-tetrahydrobenzo[b][1,4]oxazepin-3-yl)-4-phenoxypicolinamide]: the IC50 is 35.2 nM on RIPK1 (setting [1]), 24.1 nM with L929 cells (setting [2]) and 0.7 nM in the test on U937 cells (setting [3]).
`CN1C(=O)[C@@H](NC(=O)n2cc(Cc3ccc(F)cc3F)cn2)COc2ccc(C#CC(C)(C)CNC(=O)OC(C)(C)C)cc21` [Compound I-240, Tert-butyl (S)-(4-(3-(4-(2,4-difluorobenzyl)-1H-pyrazole-1-carboxamido)-5-methyl-4-oxo-2,3,4,5-tetrahydrobenzo[b][1,4]oxazepin-7-yl)-2,2-dimethylbut-3-yn-1-yl)carbamate]: the IC50 was 265 nM on RIPK1, 944 nM in the test with L929 cells (setting [2]) and 15.1 nM in the test with U937 cells (setting [3]).
Turning to `Cc1ccccc1Cn1cnc(C(=O)N[C@H]2COc3ccc(C#CC(C)(C)O)cc3N(C)C2=O)n1` [Compound I-82, (S)—N-(7-(3-hydroxy-3-methylbut-1-yn-1-yl)-5-methyl-4-oxo-2,3,4,5-tetrahydrobenzo[b][1,4]oxazepin-3-yl)-1-(2-methylbenzyl)-1H-1,2,4-triazole-3-carboxamide], the IC50 on RIPK1 (setting [1]) was determined as 25.5 nM; with L929 cells (setting [2]) it was 0.3 nM; in the test on U937 cells (setting [3]), 1.9 nM.
As to `C[C@H](NC(=O)OC(C)(C)C)C(=O)OCC(C)(C)C#Cc1ccc2c(c1)N(C)C(=O)[C@@H](NC(=O)c1cc(Oc3ccccc3)ccn1)CO2` [Compound I-141, tert-butyl ((S)-1-((2,2-dimethyl-4-((S)-5-methyl-4-oxo-3-(4-phenoxypicolinamido)-2,3,4,5-tetrahydrobenzo[b][1,4]oxazepin-7-yl)but-3-yn-1-yl)oxy)-1-oxopropan-2-yl)-12-azanecarboxylate], the IC50 at RIPK1 (setting [1]) is 414 nM; in the test on L929 cells (setting [6]) it was 120 nM; with U937 cells (setting [7]), 2.2 nM.
Regarding `CN1C(=O)[C@@H](NC(=O)c2n[nH]c(Cc3ccccc3)n2)COc2ccc(C#C[Si](C)(C)C)cc21` [Compound I-97, (S)-5-benzyl-N-(5-methyl-4-oxo-7-((trimethylsilyl)ethynyl)-2,3,4,5-drobenzo[b][1,4]oxazepin-3-yl)-1H-1,2,4-triazole-3-carboxamide], the IC50 at RIPK1 (setting [1]) came out at 85.8 nM; in the test with L929 cells (setting [6]), 0.9 nM; in the test with U937 cells (setting [7]), 1.7 nM.
`CN1C(=O)[C@@H](NC(=O)c2n[nH]c(Cc3ccccc3)n2)COc2ccc(CN3CCn4ncnc4C3)cc21` [Compound I-24, (S)-5-benzyl-N-(7-((5,6-dihydro-[1,2,4]triazolo[1,5-a]pyrazin-7(8H)-yl)methyl)-5-methyl-4-oxo-2,3,4,5-tetrahydrobenzo[b][1,4]oxazepin-3-yl)-1H-1,2,4-triazole-3-carboxamide]: the IC50 on RIPK1 (setting [1]) was 59.2 nM; in the test with L929 cells (setting [2]), 4610 nM; in the test with U937 cells (setting [3]), 3.6 nM.
On to `CN1C(=O)[C@@H](NC(=O)c2cc(-c3ccccc3)ccn2)COc2ccc(C#CC(C)(C)O)cc21` [II-20, (S)—N-(7-(3-hydroxy-3-methylbut-1-yn-1-yl)-5-methyl-4-oxo-2,3,4,5-tetrahydrobenzo[b][1,4]oxazepin-3-yl)-4-phenylpicolinamide], for which the IC50 at RIPK1 (setting [1]) turned out to be 40.3 nM; with L929 cells (setting [4]), 14600 nM; in the test with U937 cells (setting [5]) it was 31.6 nM.
